Patent US12029682B2, “Spray ejector mechanisms and devices providing charge isolation and controllable droplet charge, and low dosage volume ophthalmic administration” (EYENOVIA, INC., priority 2012, dated 2024)

Columns and labels:
glaucomatous beagles [1] = test system: glaucomatous beagles; parameters: species or system beagle dog; details: dog, in vivo
Experimental: All animals are rested a minimum of one week before starting the trials. Intraocular pressure (IOP), pupil diameter (PD), and heart rate (HR) are measured 6 times (at 0, 0:30, 0:45, 1, 2, 7 hrs) daily for five days, for initial baseline levels (Study days 1-5). The basic measurement protocol is followed and performed by the operator. PD is measured via Jameson Caliper (mm horizontally). IOP is measured with a TonoVet instrument with clean probe (iCare). HR is monitored via palpation of the femoral vessels. After two rest days, one eye is randomly assigned to receive the drug delivered via the ejector device and the contralateral eye is given traditional latanoprost from an eye dropper container.
All animals were rested a minimum of one week before starting the trials. Intraocular pressure (IOP), pupil diameter (PD), and heart rate (HR) were measured daily at time 0, 12, 13, 14, 16, and 19 hours for five days starting at approximately 2100 h to establish initial baseline levels (study days 1-5). […] PD was measured via Jameson Caliper (mm horizontally). IOP was measured using a TonoVet instrument with clean probe (iCare). HR was monitored via palpation of the femoral vessels. […]
Following a 7 day rest period, the eye choice was reversed. […] A veterinary ophthalmologist evaluated each test subject before and after the study for evidence of ocular side effects. […]

glaucomatous beagles [2] = test: Pupil diameter (PD), Jameson Caliper, in glaucomatous beagles; type: in vivo, beagle dog; details: for PD: spray ejector device, one dog
Experimental: (§1) One glaucomatous beagle dog (female, aged 3 years) from the University of Florida MacKay Colony of Glaucomatous Beagles was chosen for this study. The animal was rested a minimum of one week before starting the study. Prior to the commencement of the study, the animal was assigned one eye to receive 1.5 μl of 0.005% latanoprost and the contralateral eye to remain untreated as a control. The basic measurement protocol was followed at all times and performed by the same operator. PD was measured via Jameson Caliper (mm horizontally). IOP was measured using a TonoVet instrument with clean probe (iCare). IOP and PD were measured at time 0, 1, 2, 4, 7 and 18 hours daily for two days. Immediately after the time 0 measurement, the animal received 1.5 μl of 0.005% latanoprost in its assigned eye with a spray device. The contralateral eye was left untreated. The spray device was checked for accuracy before and after every use, and required a 10% delivered dose accuracy in pretreatment. Standard measurements continued throughout each day at time 1, 2, 4, 7 and 18 hours. Possible endpoints included, but were not limited to, excessive ocular irritation, ocular damage, and other illness or injury. No statistical crossover was utilized for this study.
as §1, with “study.” for “study. The animal was rested a minimum of one week before starting the study.”, “receive 3.0” for “receive 1.5”, “0 measurements,” for “0 measurement,”, “animal was administered 3.0” for “animal received 1.5”, “eye using” for “eye with”, “spray ejector” for “spray”
All animals were rested for a minimum of one week before starting the trials. IOP and pupil diameter (PD) were measured 5 times (at 0, 1, 2, 4, and 7 hours) daily for four days (study days 1-4) to establish initial baseline levels. The basic measurement protocol was followed at all times and performed by the same operator. PD was measured via Jameson Caliper (mm horizontally). IOP was measured with a TonoVet instrument with clean probe (iCare). After three rest days, one eye was randomly assigned to receive 9 μl of 0.005% latanoprost delivered via a spray ejector device, and the contralateral eye was administered traditional latanoprost from a traditional eyedropper container (26-30 μl).
On study days 5-9, IOP and PD measurements were taken at approximately 0900 h (time 0). Immediately after time 0 measurements, each animal received a once-daily dose of 9 μl of generic 0.005% latanoprost in its assigned eye via the spray ejector device. […]

changes in HR (glaucomatous beagles [1])	SMILES	PD (glaucomatous beagles [2]; 1.5 μl of 0.005%, by hour 1 through hour 7) [mm]	PD (glaucomatous beagles [2]; 3.0 μl of 0.005%, by hour 1 throughout hour 7) [mm]	time to return to normal PD (glaucomatous beagles [2]; one drop of 0.005% by eyedropper) [h]	time at which the iris reached pinpoint status (glaucomatous beagles [2]; traditional treatment, one drop by eyedropper, remained for the seven hours of monitoring) [h]	time at which the iris reached pinpoint status (maximum miosis) (glaucomatous beagles [2]; two 6 μl doses via ejector device, remained for the seven hours of monitoring) [h]
no changes in HR	CC(C)OC(=O)CCC/C=C\C[C@@H]1[C@@H](/C=C/[C@@H](O)COc2cccc(C(F)(F)F)c2)[C@H](O)C[C@@H]1O [travoprost]					
	CC(C)OC(=O)CCC/C=C\C[C@@H]1[C@@H](CC[C@@H](O)CCc2ccccc2)[C@H](O)C[C@@H]1O [latanoprost]	0	0	≤ 24	1	1
